Read-outs that look alike come from different tables or passages of the source.
What was measured:
CAIX [1] = molecular target: T1, CAIX (Homo sapiens, UniProt Q16790); test: Competitive fluorescence polarization assay with FITC-labeled dual-motif ligand; settings: 100 nM CAIX, 80 nM FITC-labeled ligand; read-out: IC50 (binding to CAIX, fluorescence polarization)
T1 construct: purchased R&D Systems (Minneapolis, MN)
Experimental: Fluorescence polarization (FP) experiments were performed in 21 μL of the assay buffer (12.5 mM Tris-HCl, pH 7.5, 75 mM NaCl) in transparent flat bottom 384 well Small Volume™ LoBase Microplates (Greiner Bio-One, Frickenhausen Germany). The FP reaction employed 100 nM of purified CAIX (R&D systems, Minneapolis, MN) and 80 nM FITC-labeled ligand within the assay buffer. The FP values were measured as mP units using the Safire2™ plate reader (Tecan, Morrisville, NC) with excitation at 475 nm and emission at 532 nm emission. 100 nM CAIX was incubated with serially diluted (from 8 μM to […]) concentrations of the three targeting molecules, 1 and [^63/65Cu]XYIMSR-06 for 30 min at room temperature in 384 well plates. 80 nM FITC-labeled ligand was added to each well and the reaction was incubated for 30 min at room temperature followed by FP measurements. Experiments were carried out in triplicate and the concentration resulting in 50% response (IC50) was calculated in GraphPad Prism 5 (GraphPad Software, La Jolla, CA) using the sigmoidal dose-response regression function. […]
amino)butyl)-1H-1,2,3-triazol-1-yl)butyl)-6,9-dioxa- (FP) assay as described in the experimental section. The 3,12,15,19,23-pentaazaoctacosyl)-1,4,7-triazonane-1,4- IC50 values determined for dual motif precursor 1 (Figure diyl)diacetic acid ([Al19F]XYIMSR-04) . […]
eluded at 35.5 min. MS, calculated for C H AlFN N Heart, lungs, pancreas, spleen, fat, brain, muscle, small […]
and tumor were collected. Each organ was weighed and Radiosynthesis the tissue radioactivity was measured with an automated gamma counter (1282 Compugamma CS, Pharmacia/
For convenience, Na18F in saline purchased from LKBNuclear, Inc., Mt. […] Due to was calculated by comparison with samples of a standard […]
Radiosynthesis of [Al18F]XYIMSR-04. 400μg of Data were expressed as mean ± standard deviation XYIMSR-04 in 200 μL water/Ethanol 1:1 was added to (SD). […] To this mixture, 20 μL of 2 mM AlCl3/NaOAc significance was calculated using a paired t test. […]

CAIX [2] = molecular target: T1, CAIX; parameters: method as in PMID 26418876; settings: positive control, reported value; read-out: IC50 (binding to CAIX, same method); cited from earlier work

Compound | IC50 (CAIX [1]) | IC50 (CAIX [2])
CC(CCC(=O)NC(CC(=O)NC(CC(=O)NC(CCCCn1cc(CCCC(=O)Nc2nnc(S(N)(=O)=O)s2)nn1)C(=O)NCCOCCOCCN)C(=O)O)C(=O)O)(c1ccc(O)cc1)c1ccc(O)cc1 (stereo not shown) [Compound 1, reference compound] | 63.6 ± 2.8 nM | 75.9 nM
CC(CCC(=O)N[C@@H](CC(=O)N[C@@H](CC(=O)N[C@@H](CCCCn1cc(CCCC(=O)Nc2nnc(S(N)(=O)=O)s2)nn1)C(=O)NCCOCCOCCNC(=O)C[N+]12CC[N+]34CC[N+]5(CC1)CC(=O)[O][Al-3]235([F])[O]C(=O)C4)C(=O)O)C(=O)O)(c1ccc(O)cc1)c1ccc(O)cc1 (stereo partly shown) [[Al^19F]XYIMSR-04] | 96.7 ± 3.3 nM | –
CC(CCC(=O)N[C@@H](CC(=O)N[C@@H](CC(=O)N[C@@H](CCCCn1cc(CCCC(=O)Nc2nnc(S(N)(=O)=O)s2)nn1)C(=O)NCCOCCOCCNC(=S)Nc1ccc(CC2CN3CCN(CCN2CC(=O)O)CC(=O)[O][Cu][O]C(=O)C3)cc1)C(=O)O)C(=O)O)(c1ccc(O)cc1)c1ccc(O)cc1 (stereo partly drawn) [[^63/65Cu]XYIMSR-06, 2,2′,2″-(2-(4-(3-((11S,15S,19S)-15,19-Dicarboxy-24,24-bis(4-hydroxyphenyl)-10,13,17,21-tetraoxo-11-(4-(4-(4-oxo-4-((5-sulfamoyl-1,3,4-thiadiazol-2-yl)amino)butyl)-1H-1,2,3-triazol-1-yl)butyl)-3,6-dioxa-9,12,16,20-tetraazapentacosyl)thioureido)benzyl)-1,4,7-triazonane-1,4,7-triyl)triacetic acid] | 156 ± 4.3 nM | –

— article PMC5302928, “[^64Cu]XYIMSR-06: A dual-motif CAIX ligand for PET imaging of clear cell renal cell carcinoma” (Oncotarget, 2016)
